These results are taken from paper PMC7566811 (Bioorganic & medicinal chemistry, 2010).

Usually pIC50 stands for the IC50 on a negative log10 scale, so that one unit is a factor of ten. The term AUC denotes concentration integrated over time.

pIC50: −log10 of the molar value. Structures can show the parent of a compound that is named as a salt.

One data set addresses human CCR5 (Homo sapiens, UniProt P51681). In words: Inhibition of calcium mobilization of hCCR5/CHO cells stimulated with MIP-1α. It counts as cell-based.
For data set [1] the following is noted: ref 6a; cited from earlier work.
A short description of the next data set: Oral cassette dosing PK. It is filed as in vivo.
Data set [2] can be described thus: Single dose pharmacokinetics in rats. The settings on record: rat; for AUC: 30 mg/kg po, normalized to a dose of 30 mg/kg.
The subject of another data set is T cell tropic (X4) HIV-1. In words: Anti-HIV activity against X4 HIV-1. It counts as cell-based.

human CCR5, sequence (P51681 whole entry): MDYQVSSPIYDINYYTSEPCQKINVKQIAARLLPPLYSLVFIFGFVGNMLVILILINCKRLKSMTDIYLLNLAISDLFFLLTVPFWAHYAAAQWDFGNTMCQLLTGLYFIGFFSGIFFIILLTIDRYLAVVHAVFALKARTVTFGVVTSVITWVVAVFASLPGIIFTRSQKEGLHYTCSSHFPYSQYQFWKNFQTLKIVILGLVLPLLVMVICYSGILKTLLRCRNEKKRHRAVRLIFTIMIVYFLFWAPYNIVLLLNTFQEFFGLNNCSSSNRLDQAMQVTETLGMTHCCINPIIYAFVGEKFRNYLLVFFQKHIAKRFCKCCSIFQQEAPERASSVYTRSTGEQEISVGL

For `CCCCN1C(=O)C(COC)NC(=O)C12CCN(Cc1ccc(Oc3ccccc3)cc1)CC2` (stereo not drawn) [Compound 13, 1-Butyl-3-(methoxymethyl)-9-(4-phenoxybenzyl)-1,4,9-triazaspiro[5.5]undecane-2,5-dione hydrochloride], the pIC50 on human CCR5 is 6.49.

Consider `CCCCN1C(=O)C(CC(C)C)NC(=O)C12CCN(Cc1ccc(Oc3ccccc3)cc1)CC2.Cl` (stereo not drawn) [Compound 1b, 1-Butyl-3-isobutyl-9-(4-phenoxybenzyl)-1,4,9-triazaspiro[5.5]undecane-2,5-dione hydrochloride], for which, in data set [1], the Cytotoxicity result is recorded as “minimal”. With `CCCCN1C(=O)[C@H](CC2CCCCC2)NC(=O)C12CCN(Cc1ccc(Oc3ccc(S(N)(=O)=O)cc3)cc1)CC2.Cl` [Compound 39, 4-(4-{[(3S )-1-Butyl-3-(cyclohexylmethyl)-2,5-dioxo-1,4,9-triazaspiro[5.5]undec-9-yl]methyl}phenoxy)benzenesulfonamide hydrochloride], the “AUC after oral cassette dosing” value in the data set “Oral cassette dosing PK” was “poor”. Compound `CCCCN1C(=O)[C@H](CC2CCCCC2)NC(=O)C12CCN(Cc1ccc(Oc3ccc(O)cc3)cc1)CC2.Cl` [Compound 36, (3S)-1-Butyl-3-(cyclohexylmethyl)-9-[4-(4-hydroxyphenoxy)benzyl]-1,4,9-triazaspiro[5.5]undecane-2,5-dione hydrochloride] yielded an AUC in data set [2] of 195 ng·h/mL. Turning to `CC(C)CC1NC(=O)C2(CCN(Cc3ccc(Oc4ccccc4)cc3)CC2)N(CCC(C)O)C1=O.Cl` (stereo not drawn) [Compound 4, 1-(3-Hydroxybutyl)-3-isobutyl-9-(4-phenoxybenzyl)-1,4,9-triazaspiro[5.5]undecane-2,5-dione hydrochloride], the BA in data set [2] (30 mg/kg po vs 3 mg/kg iv) is 34.1%. With `CCCCN1C(=O)[C@H](CC2CCCCC2)NC(=O)C12CCN(Cc1ccc(Oc3ccc(NS(C)(=O)=O)cc3)cc1)CC2.Cl` [Compound 38, N-[4-(4-{[(3S)-1-Butyl-3-(cyclohexylmethyl)-2,5-dioxo-1,4,9-triazaspiro[5.5]undec-9-yl]methyl}phenoxy)phenyl]methanesulfonamide hydrochloride], in “Oral cassette dosing PK”, the “AUC after oral cassette dosing” value is listed as “poor”. For the compound `CCCCN1C(=O)C(CC2CCCCC2)NC(=O)C12CCN(Cc1ccc(Oc3ccccc3)cc1)CC2.Cl` (stereo not drawn) [Compound 1a, 1-Butyl-3-(cyclohexylmethyl)-9-(4-phenoxybenzyl)-1,4,9-triazaspiro[5.5]undecane-2,5-dione hydrochloride], the Cytotoxicity entry in data set [1] is recorded as “minimal”. Consider `CCCCN1C(=O)[C@H](CC2CCCCC2)NC(=O)C12CCN(Cc1ccc(Oc3ccc(C(=O)O)cc3)cc1)CC2.Cl` [Compound 40, 4-(4-{[(3S)-1-Butyl-3-(cyclohexylmethyl)-2,5-dioxo-1,4,9-triazaspiro[5.5]undec-9-yl]methyl}phenoxy)benzoic acid hydrochloride], for which the AUC in data set [2] is given as 10,532 ng h/mL. In addition, the “Activity against T cell tropic (X4) HIV-1” value with T cell tropic (X4) HIV-1 is “inactive”.
